# From patent US4053481A, “2-Aryl-3,4-diphenylisoxazolin-5-ones” (G. D. Searle & Co., priority 1976, dated 1977)
# Test system: microsomal-cytosol fraction
# Assay: % inhibition of C14-acetate incorporation into lipid fractions (fatty acid and cholesterol biosynthesis) in rat liver microsomal-cytosol fraction
# Type: biochemical, Male Charles River rats
# Settings: 0.001 M; 37° C., 90 minutes
# Procedure: The instant compounds are useful as pharmacological agents as evidenced by their ability to reduce serum triglyceride and cholesterol levels as determined in the following assay:
# Male Charles River rats (160-200 g.), having had free access to food and water, are administered a standard diet containing 2% DEAE - cellulose (Reeve Angel anion exchange resin) for 5 days. The rats then are sacrificed and their livers removed immediately. The livers are homogenized in a medium consisting of 0.1 M potassium phosphate, pH 7.4, 0.004 m MgCl2 and 0.03 M nicotinamide, and the microsomalcytosol fraction obtained by centrifugation. 2.0 Ml. of the microsomal-cytosol fraction is incubated, at 37° C. for 90 minutes for fatty acid measurements and for measurement of cholosterol biosynthesis, in a standard assay mixture containing 10 micromoles of sodium acetate containing 0.1 microcuries of 2-C^14 -acetate, 2 micromoles nicotinamide adenine dinucleotide, 2 micromoles nicotinamide adenine dinucleotide phosphate, and 20 micromoles glucose-6-phosphate, and test compound, initially at 0.001 M, is added. All assays are run in duplicate with the assay to which no test compound is added serving as control. Heat inactivated homogenate serves as blank for both control and test systems.
# Reaction rate is determined per unit of time by the amount of C^14 label incorporated into the lipid fraction from the radioactive acetate. Results are reported as % inhibition (i.e. (Difference in Reaction Rate between Control and Test Compound/Reaction Rate for Control) × 100).
# Typical results are shown below in Table I for the product of Example 2, referred to as Compound I. Also represented are the results for Atromid S® , a brand of clofibrate, marketed as a hypocholesterolemic agent.
compound,measurement,value
"CCOC(=O)C(C)(C)Oc1ccc(Cl)cc1 [Atromid-S, clofibrate]","% Inhibition, Fatty Acid Fraction",24%
same,"% Inhibition, Fraction (first column, qualifier not given)",28%
same,"% Inhibition, Non-Lipid Fraction",42%
